{
  "source": "ChEMBL document CHEMBL5154841",
  "about": "“Optimization of NAMPT activators to achieve in vivo neuroprotective efficacy” (Eur J Med Chem, 2022)",
  "key": {"[1]": {"assay": "Cytoprotective activity against FK866- induced cell death in human U2OS cells assessed as increase in viable cells by measuring relative AUC at 10 uM incubated for […] by fluorometric analysis relative to NAT", "type": "functional"}, "[2]": {"assay": "Half life in CD-1 mouse at 1 mg/kg, iv measured after 24 hrs by LC-MS/MS analysis", "type": "ADME, organism-based", "conditions": "in vivo"}, "[3]": {"assay": "Half life in CD-1 mouse at 30 mg/kg, ip measured after 24 hrs by LC-MS/MS analysis", "type": "ADME, organism-based", "conditions": "in vivo"}, "[4]": {"assay": "Half life in CD-1 mouse at 30 mg/kg, po measured after 24 hrs by LC-MS/MS analysis", "type": "ADME, organism-based", "conditions": "in vivo"}, "[5]": {"assay": "Tmax in CD-1 mouse at 30 mg/kg, ip measured after 24 hrs by LC-MS/MS analysis", "type": "ADME, organism-based", "conditions": "in vivo"}, "[6]": {"assay": "Tmax in CD-1 mouse at 30 mg/kg, po measured after 24 hrs by LC-MS/MS analysis", "type": "ADME, organism-based", "conditions": "in vivo"}, "[7]": {"assay": "Cmax in CD-1 mouse at 30 mg/kg, ip measured after 24 hrs by LC-MS/MS analysis", "type": "ADME, organism-based", "parameters": "time 24 hrs, dose 30 mg/kg, route ip", "conditions": "in vivo"}, "[8]": {"assay": "Cmax in CD-1 mouse at 30 mg/kg, po measured after 24 hrs by LC-MS/MS analysis", "type": "ADME, organism-based", "parameters": "dose 30 mg/kg, time 24 hrs, route po", "conditions": "in vivo"}, "[9]": {"assay": "AUClast in CD-1 mouse at 1 mg/kg, iv measured after 24 hrs by LC-MS/MS analysis", "type": "ADME, organism-based", "parameters": "dose 1 mg/kg, time 24 hrs, route iv", "conditions": "in vivo"}, "[10]": {"assay": "AUClast in CD-1 mouse at 30 mg/kg, ip measured after 24 hrs by LC-MS/MS analysis", "type": "ADME, organism-based", "parameters": "dose 30 mg/kg, time 24 hrs, route ip", "conditions": "in vivo"}, "[11]": {"assay": "AUClast in CD-1 mouse at 30 mg/kg, po measured after 24 hrs by LC-MS/MS analysis", "type": "ADME, organism-based", "parameters": "dose 30 mg/kg, time 24 hrs, route po", "conditions": "in vivo"}, "[12]": {"assay": "AUCinfinity in CD-1 mouse at 1 mg/kg, iv measured after 24 hrs by LC-MS/MS analysis", "type": "ADME, organism-based", "parameters": "time 24 hrs, dose 1 mg/kg, route iv", "conditions": "in vivo"}, "[13]": {"assay": "AUCinfinity in CD-1 mouse at 30 mg/kg, ip measured after 24 hrs by LC-MS/MS analysis", "type": "ADME, organism-based", "parameters": "dose 30 mg/kg, time 24 hrs, route ip", "conditions": "in vivo"}, "[14]": {"assay": "AUCinfinity in CD-1 mouse at 30 mg/kg, po measured after 24 hrs by LC-MS/MS analysis", "type": "ADME, organism-based", "parameters": "dose 30 mg/kg, time 24 hrs, route po", "conditions": "in vivo"}, "[15]": {"assay": "Clearance in CD-1 mouse at 1 mg/kg, iv measured after 24 hrs by LC-MS/MS analysis", "type": "ADME, organism-based", "conditions": "in vivo"}, "[16]": {"assay": "Volume of distribution at steady state in CD-1 mouse at 1 mg/kg, iv measured after 24 hrs by LC-MS/MS analysis", "type": "ADME, organism-based", "conditions": "in vivo, read-out: Vdss"}, "[17]": {"assay": "Bioavailability in CD-1 mouse at 30 mg/kg, ip measured after 24 hrs by LC-MS/MS analysis", "type": "ADME, organism-based", "conditions": "in vivo"}, "[18]": {"assay": "Oral bioavailability in CD-1 mouse at 30 mg/kg measured after 24 hrs by LC-MS/MS analysis", "type": "ADME, organism-based", "conditions": "in vivo"}, "U2OS": {"tested_on": "U2OS", "assay": "Cytotoxicity against human U2OS cells assessed as effect on cell viability up to 10 uM measured after 72 hrs by Celltiter-glo luminescent cell viability assay", "type": "toxicity, cell-based"}, "T98G": {"tested_on": "T98G", "assay": "Cytotoxicity against human T98G cells assessed as effect on cell viability up to 10 uM measured after 72 hrs by Celltiter-glo luminescent cell viability assay", "type": "toxicity, cell-based"}, "SH-SY5Y": {"tested_on": "SH-SY5Y", "assay": "Cytotoxicity against human SH-SY5Y cells assessed as effect on cell viability up to 10 uM measured after 72 hrs by Celltiter-glo luminescent cell viability assay", "type": "toxicity, cell-based"}, "HepG2": {"tested_on": "HepG2", "assay": "Cytotoxicity against human HepG2 cells assessed as effect on cell viability up to 10 uM measured after 72 hrs by Celltiter-glo luminescent cell viability assay", "type": "toxicity, cell-based", "conditions": "hepg2, 72 h"}, "[19]": {"assay": "Toxicity in C57BL/6J mouse assessed as body weight loss at 1 to 3 mg/kg, iv qd administered for 2 weeks and measured every day", "type": "organism-based", "conditions": "in vivo, 336 h, dose 1-3 mg/kg"}},
  "data": [
    {"smiles": "COc1ccc(OCC(=O)Nc2ccc(O)cc2)c(C(C)(C)C)c1", "values": [
      {"measurement": "Activity", "setting": "[1]", "value": 138, "unit": "%"}
    ]},
    {"smiles": "CC(C)(C)c1ccccc1OCC(=O)Nc1ccc(O)cc1", "values": [
      {"measurement": "half-life", "setting": "[2]", "value": 17.4, "unit": "min"},
      {"measurement": "half-life", "setting": "[3]", "value": 180, "unit": "min"},
      {"measurement": "half-life", "setting": "[4]", "value": 178, "unit": "min"},
      {"measurement": "Tmax", "setting": "[5]", "value": 19.8, "unit": "min"},
      {"measurement": "Tmax", "setting": "[6]", "value": 15, "unit": "min"},
      {"measurement": "Cmax", "setting": "[7]", "value": 1520, "unit": "ng/mL"},
      {"measurement": "Cmax", "setting": "[8]", "value": 1620, "unit": "ng/mL"},
      {"measurement": "AUC(0-t) at 24 h", "setting": "[9]", "value": 212, "unit": "ng·h/mL"},
      {"measurement": "AUC(0-t) at 24 h", "setting": "[10]", "value": 2510, "unit": "ng·h/mL"},
      {"measurement": "AUC(0-t) at 24 h", "setting": "[11]", "value": 2120, "unit": "ng·h/mL"},
      {"measurement": "AUC(0-inf)", "setting": "[12]", "value": 214, "unit": "ng·h/mL"},
      {"measurement": "AUC(0-inf)", "setting": "[13]", "value": 2520, "unit": "ng·h/mL"},
      {"measurement": "AUC(0-inf)", "setting": "[14]", "value": 2130, "unit": "ng·h/mL"},
      {"measurement": "clearance", "setting": "[15]", "value": 78.8, "unit": "mL/min/kg"},
      {"measurement": "Vd", "setting": "[16]", "value": 1.3, "unit": "L/kg"},
      {"measurement": "bioavailability", "setting": "[17]", "value": 39.2, "unit": "%"},
      {"measurement": "bioavailability", "setting": "[18]", "value": 33.2, "unit": "%"}
    ]},
    {"smiles": "CC(C)(C)c1cc(O)ccc1OCC(=O)Nc1ccc(O)cc1", "values": [
      {"measurement": "Activity", "setting": "[1]", "value": 149, "unit": "%"}
    ]},
    {"smiles": "CC(C)(C)c1cccc(C#N)c1OCC(=O)Nc1ccc(O)cc1", "values": [
      {"measurement": "Activity", "setting": "U2OS", "value": "Non-Toxic"},
      {"measurement": "Activity", "setting": "T98G", "value": "Non-Toxic"},
      {"measurement": "Activity", "setting": "SH-SY5Y", "value": "Non-Toxic"},
      {"measurement": "Activity", "setting": "HepG2", "value": "Non-Toxic"},
      {"measurement": "Activity", "setting": "[19]", "value": "Non-Toxic"},
      {"measurement": "half-life", "setting": "[2]", "value": 10.8, "unit": "min"},
      {"measurement": "half-life", "setting": "[3]", "value": 63, "unit": "min"},
      {"measurement": "half-life", "setting": "[4]", "value": 80.4, "unit": "min"},
      {"measurement": "Tmax", "setting": "[5]", "value": 15, "unit": "min"},
      {"measurement": "Tmax", "setting": "[6]", "value": 15, "unit": "min"},
      {"measurement": "Cmax", "setting": "[7]", "value": 1560, "unit": "ng/mL"},
      {"measurement": "Cmax", "setting": "[8]", "value": 188, "unit": "ng/mL"},
      {"measurement": "AUC(0-t) at 24 h", "setting": "[9]", "value": 183, "unit": "ng·h/mL"},
      {"measurement": "AUC(0-t) at 24 h", "setting": "[10]", "value": 1330, "unit": "ng·h/mL"},
      {"measurement": "AUC(0-t) at 24 h", "setting": "[11]", "value": 388, "unit": "ng·h/mL"},
      {"measurement": "AUC(0-inf)", "setting": "[12]", "value": 185, "unit": "ng·h/mL"},
      {"measurement": "AUC(0-inf)", "setting": "[13]", "value": 1340, "unit": "ng·h/mL"},
      {"measurement": "AUC(0-inf)", "setting": "[14]", "value": 395, "unit": "ng·h/mL"},
      {"measurement": "clearance", "setting": "[15]", "value": 90.4, "unit": "mL/min/kg"},
      {"measurement": "Vd", "setting": "[16]", "value": 1.13, "unit": "L/kg"},
      {"measurement": "bioavailability", "setting": "[17]", "value": 24.2, "unit": "%"},
      {"measurement": "bioavailability", "setting": "[18]", "value": 7.05, "unit": "%"}
    ]},
    {"smiles": "CC(C)(C)c1cc(Cl)c(F)cc1OCC(=O)Nc1ccc(O)cc1", "values": [
      {"measurement": "Activity", "setting": "[1]", "value": 40, "unit": "%"}
    ]},
    {"smiles": "CC(C)(C)c1cccc(F)c1OCC(=O)Nc1ccc(O)cc1", "values": [
      {"measurement": "Activity", "setting": "[1]", "value": 235, "unit": "%"}
    ]},
    {"smiles": "CC(C)(C)c1ccc(F)cc1OCC(=O)Nc1ccc(O)cc1", "values": [
      {"measurement": "Activity", "setting": "[1]", "value": 171, "unit": "%"}
    ]},
    {"smiles": "CC(C)(C)c1cc(Br)ccc1OCC(=O)Nc1ccc(O)cc1", "values": [
      {"measurement": "Activity", "setting": "[1]", "value": 40, "unit": "%"}
    ]},
    {"smiles": "CC(C)(C)c1ccc(C#N)cc1OCC(=O)Nc1ccc(O)cc1", "values": [
      {"measurement": "Activity", "setting": "[1]", "value": 206, "unit": "%"}
    ]},
    {"smiles": "CC(C)(C)c1cc(Cl)ccc1OCC(=O)Nc1ccc(O)cc1", "values": [
      {"measurement": "Activity", "setting": "[1]", "value": 32, "unit": "%"}
    ]},
    {"smiles": "O=C(COc1ccccc1)Nc1ccc(O)cc1", "values": [
      {"measurement": "Activity", "setting": "[1]", "value": 10, "unit": "%"}
    ]},
    {"smiles": "CC(C)(C)c1cc(C#N)ccc1OCC(=O)Nc1ccc(O)cc1", "values": [
      {"measurement": "Activity", "setting": "[1]", "value": 126, "unit": "%"}
    ]},
    {"smiles": "COC(=O)c1ccc(OCC(=O)Nc2ccc(O)cc2)c(C(C)(C)C)c1", "values": [
      {"measurement": "Activity", "setting": "[1]", "value": 133, "unit": "%"}
    ]}
  ]
}
